# Patent US9371337B2, “β-lactamase inhibitors” (The Regents of the University of California, priority 2011, dated 2016)
# Where two headings read alike, the source gives them in different places.
# Columns and labels:
# AmpC β-lactamase [1] = molecular target: T1, AmpC β-lactamase (Escherichia coli, UniProt P00811); test: biochemical; type: biochemical
# T1 construct: made in house
# Procedure: FIG. 18. Representative IC50 curves. […] IC50 curves were obtained by measuring rates (in duplicates) at different inhibitor concentrations (x-axis) and by determining the residual activity (y-axis, in percentage). IC50 values were determined by non-linear regression and Ki values calculated using GraphPad software assuming competitive inhibition.
# Sulfonamidomethaneboronic acids were dissolved in 100% DMSO at a concentration of 100 mM; more diluted stocks were prepared as necessary. […] The enzyme was expressed and purified as described (Usher, K. C. et al., Biochemistry 1998, 37, 16082-16092) and CENTA was purchased from Tydock Pharma.
# Kinetic measurements were run at room temperature in 50 mM sodium-cacodylate pH 6.5 in the presence of 0.01% Triton-X to prevent non-specific inhibition via compound aggregation. […] (Kettner, C. A. and Shenvi, A. B., J. Biol. Chem. 1984, 259, 15106-15114) Reactions were performed in 1 mL cuvettes with 60 μM CENTA and initiated by adding 1.2 nM enzyme. […] (Weston, G. S. et al., J. Med. Chem. 1998, 41, 4577-4586) The first 180 sec of each reaction were used to measure initial rates. IC50 values were obtained by fitting binding data to a sigmoidal dose-response equation using GraphPad Prism (GraphPad software, Inc). Ki values were determined by the use of Cheng-Prusoff equation. (Cheng, Y. and Prusoff, W. H., Biochem. Pharmacol. 1973, 22, 3099-3108)
# Trypsin [2] = molecular target: T2, Trypsin (UniProt P00760); test: Trypsin inhibition; type: biochemical; settings: Table 10, Trypsin
# T2 construct: IC50 (Estimated from single concentration measurement); Ki
# T2 sequence (P00760 1-246): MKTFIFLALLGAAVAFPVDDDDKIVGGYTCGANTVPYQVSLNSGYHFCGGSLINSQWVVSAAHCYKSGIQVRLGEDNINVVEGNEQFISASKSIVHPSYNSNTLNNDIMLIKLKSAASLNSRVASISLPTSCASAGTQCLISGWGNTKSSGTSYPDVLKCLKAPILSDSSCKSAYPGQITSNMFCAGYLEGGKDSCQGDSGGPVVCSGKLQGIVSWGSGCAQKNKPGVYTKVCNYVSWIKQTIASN
# Description: (§1) To assess the selectivity of the new molecules we determined Ki values against three common serine proteases, Trypsin, Elastase and α-Chymotrypsin, as well as that of a class A β-lactamase, CTX-M-9 (Table 10) (Pouvreau L, et al. (1998), FEBS Lett 423:167-172; Del Mar E G, et al. (1980), Biochemistry 19:468-472; Rodriguez-Martinez J A, et al. (2009), Biotechnol Lett 31:883-887; Chen Y, et al. (2005), J Mol Biol 348:349-362).
# Elastase = Elastase inhibition; type: biochemical; settings: Table 4h, Elastase vs AmpC
# Description: as §1
# [3] = molecular target: T3, α-chymotrypsin (bovine pancreatic) (Bos taurus, UniProt P00766); test: α-Chymotrypsin inhibition; type: biochemical
# T3 construct: purchased Sigma-Aldrich
# Procedure: α-Chymotrypsin assays were performed in 50 mM Tris buffer pH 7.5 with 0.01% Triton-X. Inhibitor and 0.001 mg/mL enzyme were incubated at their final concentration for 10 min before the reaction was initiated by the addition of 200 μM N-succinyl-Ala-Ala-Pro-Phe p-nitroanilide and monitored at 410 nm.
# as §1
# CTX-M-9 β-lactamase = CTX-M-9 β-lactamase (Escherichia coli, UniProt Q9L5C8); test: biochemical; type: biochemical
# Procedure: Reactions were initiated by the addition of 0.3 nM enzyme and monitored at 405 nm.
# as §1
# AmpC β-lactamase [4] = molecular target: T1, AmpC β-lactamase; type: biochemical
# Trypsin [5] = test: Trypsin inhibition; type: biochemical; settings: Table 4h, Trypsin vs AmpC
# Trypsin [6] = molecular target: T2, Trypsin; test: Trypsin inhibition; type: biochemical
# [7] = system: clinical strains resistant to third-generation cephalosporins; test: MIC distribution of third-generation cephalosporins alone or with compounds over clinical strains; type: cell-based
# Procedure: The anti-resistance activity of inhibitors was investigated by the determination of the minimum inhibitory concentrations (MICs) of the β-lactam/inhibitor combination necessary to inhibit the growth of clinically-isolated bacteria resistant to third-generation cephalosporins via expression of class A or class C β-lactamases (Table 6).
# Susceptibility testing was performed and interpreted following the guidelines of CLSI. (Clinical and Laboratory Standards Institute, Performance standards for antimicrobial susceptibility testing, 20th Informational Supplement, M100-S20 2010) The compounds were dissolved in 50% DMSO, and dilutions were performed using Muller-Hinton medium. An adequate final concentration was obtained to determine the minimum inhibitory concentrations (MICs). The concentration of DMSO was maintained below 5%. The inhibitors were tested for synergy with the third-generation β-lactams ceftazidime and cefotaxime against several clinical bacteria. The ratio of β-lactams to inhibitors was 1:4. Each value reported reflects the average of three independent experiments. […] The Friedman's test and the Wilcoxon signed rank test were used to compare MIC values. Statistical significance was established at p<0.05.
# [8] = third-generation cephalosporins in combination with the compound
# T1 sequence (P00811 20-377): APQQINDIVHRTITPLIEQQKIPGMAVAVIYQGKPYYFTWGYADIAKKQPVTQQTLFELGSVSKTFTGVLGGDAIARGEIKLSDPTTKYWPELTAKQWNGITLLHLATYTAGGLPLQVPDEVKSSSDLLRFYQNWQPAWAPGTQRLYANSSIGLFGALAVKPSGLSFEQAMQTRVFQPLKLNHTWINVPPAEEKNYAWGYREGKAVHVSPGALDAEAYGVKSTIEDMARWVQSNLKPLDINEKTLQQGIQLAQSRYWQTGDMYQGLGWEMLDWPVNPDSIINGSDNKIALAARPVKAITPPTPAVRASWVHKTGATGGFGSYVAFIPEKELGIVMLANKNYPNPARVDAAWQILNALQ
# Chain of CTX-M-9 β-lactamase (Q9L5C8 29-291): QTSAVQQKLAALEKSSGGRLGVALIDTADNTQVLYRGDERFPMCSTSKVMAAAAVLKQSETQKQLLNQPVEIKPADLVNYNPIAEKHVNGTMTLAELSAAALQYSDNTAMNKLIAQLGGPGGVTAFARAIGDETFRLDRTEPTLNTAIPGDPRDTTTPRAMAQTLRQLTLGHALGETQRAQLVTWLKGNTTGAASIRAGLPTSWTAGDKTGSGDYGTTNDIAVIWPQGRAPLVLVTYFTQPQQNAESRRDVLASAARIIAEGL
compound,measurement,setting,value
"O=C(Cc1cccs1)N[C@H](B(O)O)c1cccc(C(=O)O)c1 [SM23, reference compound]",Ligand efficiency,AmpC β-lactamase [1]; Table 5,0.55
"O=S(=O)(NCB(O)O)c1ccc(-c2nnn[nH]2)cc1C(F)(F)F [CR192, [4-(3-tetrazol-5-yl)-2-trifluoromethyl-benzensulfonylamino]methaneboronic acid]",Ki,Trypsin [2],442 µM
same,Selectivity vs AmpC (comparison of IC50 values),Elastase,34091
same,activity at 100 µM,"[3]; Table 4b, 100 μM inhibitor, read-out: Percentage activity with 100 μM inhibitor",85%
same,potency estimated from few doses,"[3]; Table 4e, read-out: IC50 (Estimated from single concentration measurement)",567 µM
same,Ki,"[3]; Table 10, α-Chymotrypsin",141 µM
same,Selectivity vs AmpC (comparison of IC50 values),"[3]; Table 4h, Chymotrypsin vs AmpC",1416667
same,inhibition at 100 µM,[3]; read-out: Percentage inhibition with 100 μM inhibitor,15%
same,IC50,AmpC β-lactamase [1],0.0004 µM
same,time until substrate hydrolysis rates converge (equilibrium),"AmpC β-lactamase [1]; 50 pM AmpC, 500 pM inhibitor, with or without 5 minutes pre-incubation",10 to 15 min
same,Ki,"AmpC β-lactamase [1]; Table 4g, read-out: Ki (from multi- or single concentration measurements)",0.05 nM
same,Ligand efficiency,AmpC β-lactamase [1]; Table 5,0.60
same,Ki,"AmpC β-lactamase [1]; Table 5, read-out: Ki",0.05 nM
same,Ki,"AmpC β-lactamase [1]; Table 7, read-out: Ki Vs AmpC",0.05 nM
same,Ki,"AmpC β-lactamase [1]; Table 8, read-out: Ki vs AmpC",0.05 nM
same,Ki,"AmpC β-lactamase [1]; Table 10, AmpC, read-out: Ki",0.05 nM
same,improved affinity compared to CR157,AmpC β-lactamase [1]; ratio of Ki values,24 fold
same,Ki,"AmpC β-lactamase [1]; running text and FIG. 18, substrate CENTA 105 μM, read-out: Ki",0.05 nM
same,IC50,CTX-M-9 β-lactamase,5 µM
same,Ki,"CTX-M-9 β-lactamase; Table 8, read-out: Ki vs CTX-M-9",1.8 µM
same,Selectivity vs AmpC (comparison of IC50 values),"CTX-M-9 β-lactamase; Table 4h, CTX-M-9 vs AmpC",11948
same,potency estimated from few doses,CTX-M-9 β-lactamase; read-out: IC50 (Estimated from single concentration measurement),5 µM
same,inhibition at 16 µM,CTX-M-9 β-lactamase; read-out: Percentage inhibition with 16 μM inhibitor,77%
same,type of inhibition,"AmpC β-lactamase [4]; Lineweaver-Burk analysis, competition with substrate CENTA",competitive
same,"time dependence of inhibition (incubation effect, off-rate)",AmpC β-lactamase [4]; enzyme incubation and dilution experiments,slow off-rate
same,Selectivity vs AmpC (comparison of IC50 values),Trypsin [5],6000000
same,Percentage activity with 100 μM inhibitor,"Trypsin [6]; Table 4b, 100 μM inhibitor",96
same,Percentage inhibition with 100 μM inhibitor,"Trypsin [6]; Table 4c, 100 μM inhibitor",4
same,potency estimated from few doses,"Trypsin [6]; read-out: IC50 (Estimated from single concentration measurement), Table 4e",2400 µM
same,clinical isolates for which MICs dropped into the susceptible range (MICs≦1 μg/mL),[7]; cephalosporins combined with the compound,50%
same,MIC 25% percentile,[7]; [8],1.0 µg/mL
same,MIC 75% percentile,[7]; [8],2.0 µg/mL
"CC1(C)OB(c2ccccc2NS(=O)(=O)Cc2ccccc2)OC1(C)C [CR180, Pinacol 2-(phenylmethanesulfonylamino)phenylboronate]",Ki,"AmpC β-lactamase [1]; Table 7, read-out: Ki Vs AmpC",200 nM
"C[C@H](NS(C)(=O)=O)B(O)O [GBS32, (1R)-1-(Methylsulfonylamino)-1-ethaneboronic acid]",Ki,"AmpC β-lactamase [1]; Ki Vs AmpC, Table 7",650 nM
"CS(=O)(=O)NCB(O)O [Compound 3, Pinacol(methanesulfonylamino)methaneboronate]",Ligand efficiency,AmpC β-lactamase [1],0.91
same,Ki,"AmpC β-lactamase [1]; Ki vs AmpC, Table 8",800 nM
same,improvement of potency compared to the carboxamide analog,AmpC β-lactamase [1]; ratio of Ki values,23 fold
same,Ki,AmpC β-lactamase [1]; read-out: Ki,789 nM
O=[N+]([O-])c1cccc(CS(=O)(=O)NCB(O)O)c1 [Compound 6],Ki,"AmpC β-lactamase [1]; Table 7, read-out: Ki Vs AmpC",189 nM
CC(C)(C)N(CB(O)O)S(=O)(=O)Cc1ccccc1 [CR22],Ki,"AmpC β-lactamase [1]; Ki Vs AmpC, Table 7",5100 nM
"O=S(=O)(Cc1ccccc1)N[C@@H](Cc1ccccc1)B(O)O [Compound 16, (1R)-1-(phenylmethanesulfonylamino)-2-phenylethaneboronic acid]",Ki,"AmpC β-lactamase [1]; Table 1, read-out: Ki",3720 nM
same,Ki,"AmpC β-lactamase [1]; Table 7, read-out: Ki Vs AmpC",3720 nM
"CC1(C)OB(c2ccccc2NS(C)(=O)=O)OC1(C)C [CR181, Pinacol 2-(methylsulfonylamino)phenylboronate]",Ki,"AmpC β-lactamase [1]; Table 7, read-out: Ki Vs AmpC",400 nM
Pinacol(isopropylsulfonylamino)methaneboronate [GBS22],Ki,"AmpC β-lactamase [1]; Table 7, read-out: Ki Vs AmpC",100 nM
"C[C@H](NS(=O)(=O)Cc1ccccc1)B(O)O [GBS34, (1R)-1-(Phenylmethanesulfonylamino)-1-ethaneboronic acid]",Ki,"AmpC β-lactamase [1]; Ki Vs AmpC, Table 7",310 nM
